# According to publication PMC9046974, “Construction of a Microfluidic Platform With Core-Shell CdSSe@ZnS Quantum Dot-Encoded Superparamagnetic Iron Oxide Microspheres for Screening and Locating Matrix Metalloproteinase-2 Inhibitors From Fruits of Rosa roxburghii” (Frontiers in Nutrition, 2022):
# Target: T1, matrix metalloproteinase-2 (Homo sapiens, UniProt P08253)
# T1 construct: purchased not specified for the assay (Sigma Co. recombinant enzyme or a component of the Shanghai Easy Biotech Co. ELISA kit)
# T1 sequence (P08253 110-660): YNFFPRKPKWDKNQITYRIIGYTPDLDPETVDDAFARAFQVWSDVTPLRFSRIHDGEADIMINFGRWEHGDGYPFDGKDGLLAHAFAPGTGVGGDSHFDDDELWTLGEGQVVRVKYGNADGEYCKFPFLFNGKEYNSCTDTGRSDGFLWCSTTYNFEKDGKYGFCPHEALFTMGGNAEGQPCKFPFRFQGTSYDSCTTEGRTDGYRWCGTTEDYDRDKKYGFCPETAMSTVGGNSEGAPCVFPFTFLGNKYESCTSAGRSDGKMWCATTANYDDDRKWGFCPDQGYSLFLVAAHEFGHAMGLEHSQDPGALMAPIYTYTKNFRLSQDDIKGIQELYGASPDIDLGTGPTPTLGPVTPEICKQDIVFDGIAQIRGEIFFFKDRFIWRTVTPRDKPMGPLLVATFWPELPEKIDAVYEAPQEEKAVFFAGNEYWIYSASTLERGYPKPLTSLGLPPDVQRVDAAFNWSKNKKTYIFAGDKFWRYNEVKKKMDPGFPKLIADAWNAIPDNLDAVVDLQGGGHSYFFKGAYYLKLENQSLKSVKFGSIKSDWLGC
# Assay: Matrix metalloproteinase-2 inhibitory assay
# Assay type: biochemical
# Settings: MMP-2 inhibition, 30 min at 37°C, absorbance 450 nm
# Protocol: The inhibitory effects of binding ligands were evaluated as below. […] Test components were dissolved in the buffer to yield a gradient of concentrations between 1 and 200 μM. A total of 50 μl of test components and 100 μl of the enzyme solution were added to a 96-well plate and incubated for 30 min at 37°C. Afterward, the solution in the 96-well plate was discarded. The plate was dried on water adsorbing paper. A total of 200 μl of wash solution was added to each well and incubated for 30 s. Again, the solution in the 96-well plate was abandoned. The plate was dried on water adsorbing paper. This step was carried out five times. A total of 50 μl aliquots of solution A and 50 μl aliquots of solution B were added to each well and kept in a dark place for 15 min. As a result, 50 μl aliquots of stopping solution were pipetted into each well. The plate was monitored at the absorbance of 450 nm by using an automatic microplate reader.
row,Compound,IC50
1,"O=c1oc2c(O)c(O)cc3c(=O)oc4c(O)c(O)cc1c4c23 [Ellagic acid, reference compound]",37.8 ± 1.96 µM
2,"CC1(C)CC[C@]2(C(=O)O)CC[C@]3(C)C(=CC[C@@H]4[C@@]5(C)C[C@H](O)[C@H](O)[C@@](C)(C(=O)O)[C@@H]5CC[C@]43C)[C@@H]2C1 [Medicogenic acid, Medicagenic acid]",64.1 ± 13.6 µM
3,C[C@@H]1CC[C@]2(C(=O)O[C@@H]3O[C@H](CO)[C@@H](O)[C@H](O)[C@H]3O)CC[C@]3(C)C(=CC[C@@H]4[C@@]5(C)C[C@@H](O)[C@H](O)[C@@](C)(CO)[C@@H]5CC[C@]43C)[C@@H]2[C@]1(C)O [Niga-ichigoside F1],20.1 ± 1.55 µM
4,COC(=O)[C@@]1(C)CC[C@]2(C(=O)O[C@@H]3O[C@H](CO)[C@@H](O)[C@H](O)[C@H]3O)CC[C@]3(C)C(=CC[C@@H]4[C@@]5(C)CC[C@H](O)[C@@](C)(CO)[C@@H]5CC[C@]43C)[C@@H]2C1 [Zebirioside O],23.2 ± 4.49 µM
5,C[C@@H]1CC[C@]2(C(=O)O[C@@H]3O[C@H](CO)[C@@H](O)[C@H](O)[C@H]3O)CC[C@]3(C)C(=CC[C@@H]4[C@@]5(C)C[C@@H](O)[C@H](O)C(C)(C)[C@@H]5CC[C@]43C)[C@@H]2[C@]1(C)O [Rosamultin],20.7 ± 2.06 µM
6,C[C@@H]1CC[C@]2(C(=O)O[C@@H]3O[C@H](CO)[C@@H](O)[C@H](O)[C@H]3O)CC[C@]3(C)C(=CC[C@@H]4[C@@]5(C)C[C@@H](O)C(=O)C(C)(C)[C@@H]5CC[C@]43C)[C@@H]2[C@]1(C)O [Potentillanoside A],25.5 ± 3.01 µM
7,Oreganol A,30.8 ± 2.13 µM
8,Peduncloside,23.2 ± 2.53 µM
9,C=C1[C@H]2C3=CC[C@@H]4[C@@]5(C)C[C@@H](O)[C@H](O)[C@@](C)(CO)[C@@H]5CC[C@@]4(C)[C@]3(C)CC[C@@]2(C(=O)O[C@@H]2O[C@H](CO)[C@@H](O)[C@H](O)[C@H]2O)CC[C@H]1C [Quadranoside VIII],25.9 ± 5.66 µM
10,CC1=C2[C@H](/C=C(\C)C(=O)O)CC[C@@H](C)[C@H]2CC1 [Valerenic acid],82.5 ± 8.87 µM
11,C[C@@H]1CC[C@]2(C(=O)O[C@@H]3O[C@H](CO)[C@@H](O)[C@H](O)[C@H]3O)CC[C@]3(C)C(=CC[C@@H]4[C@@]5(C)C[C@@H](O)[C@@H](O)C(C)(C)[C@@H]5CC[C@]43C)[C@@H]2[C@]1(C)O [Kajiichigoside F1],22 ± 2.15 µM
12,O=C(O[C@@H]1O[C@@H]2COC(=O)c3cc(O)c(O)c(O)c3-c3c(cc(O)c(O)c3O)C(=O)O[C@H]([C@H]1O)[C@@H]2O)c1cc(O)c(O)c(O)c1 [Corilagin],28.6 ± 2.83 µM

# Target: T2, MS@PEI@QDs@PEI@MMP-2 (immobilized matrix metalloproteinase-2) (Homo sapiens, UniProt P08253)
# T2 construct: purchased Sigma Co; host or cells: HEK 293 cells
# T2 sequence (P08253 110-660): T1 sequence (P08253 110-660)
# Assay: Microfluidic chip-based ligand fishing
# Assay type: binding
# Settings: dissociated solution after microfluidic chip-based ligand fishing
# Protocol: All ligand fishing experiments were performed on the microfluidic chip system. The microfluidic chip system consisted of six modules, namely, a microscope stand, a light-emitting diode surface light source, a charge-coupled device (CCD) camera, a temperature controller, an automated x-y-z translation stage (Wuhan Mesovision Biotechnology Co.) for controlling the movement of the microfluidic chip, and four syringe pumps (Baoding Lange Constant Current Pump Co.). Before use, the microfluidic chip was first treated with 1% tween 80 in n-hexadecane (v/v) through port a to make the whole chip surface hydrophobic. […] Under the monitoring of the top-view CCD camera, MS@PEI@QDs@PEI@MMP-2 were infused into the upper left port b, whereas extract of R. roxburghii was infused into upper right port c at an appropriate flow rate to allow the solution to meet the MS@PEI@QDs@PEI @MMP-2 at the junction. The mixture was incubated in the channel for a period. Then, 500 μl aliquots of wash solvent (PBS buffer) were infused into the port d. At the turning point, a small ring magnet trapped the MS@PEI@QDs@PEI@MMP-2. […] The linearity was analyzed by plotting the peak area of the ellagic acid against a series of concentrations (0.009–1.00 mg·ml^−1). The lower limit of quantification was determined as the analytical concentration at an S/N ratio of 10. […] The UV spectra were monitored at 254 nm. […]
row,Compound,extraction yield
1,CNC(=O)[C@H](Cc1ccccc1)NC(=O)[C@H](CC(C)C)[C@H](CSc1cccs1)C(=O)NO [Batimastat],76.6%
